According to US11390604B2 (Hoffmann-La Roche Inc., priority 2019, dated 2022):
Where a name gives a salt, the structure may show the parent alone.

test system: Acinetobacter baumannii ATCC 17961; test: Antimicrobial susceptibility testing: 90% growth inhibitory concentration (IC90) determination; format: cell-based; conditions: ATCC17961, Acinetobacter baumannii ATCC 17961, Iso-Sensitest broth, read-out: ATCC 17961 IC90
In short: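 Broth microdilution in Iso-Sensitest medium, twofold series (e.g. 50 to 0.097 μM final), ~5×10^5 CFU/ml inoculum, 35±2 °C. OD600 read every 20 min over 16 h. IC90 derived from growth inhibition during logarithmic phase.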

Row | Compound | IC90 [nM]
1 | Cc1cc(NC(=O)c2ncc(-c3cn(CC#N)nc3C(F)(F)F)n2C)cc(F)c1C(=O)N1CCN(C(=O)C2(O)CCCNC2)CC1 (stereo not drawn) [Example 120, 5-[1-(cyanomethyl)-3-(trifluoromethyl)pyrazol-4-yl]-N-[3-fluoro-4-[4-(3-hydroxypiperidine-3-carbonyl)piperazine-1-carbonyl]-5-methylphenyl]-1-methylimidazole-2-carboxamide] | 2250
2 | Cc1cc(NC(=O)c2ncc(-c3cn(CC#N)nc3C(F)(F)F)n2C)cc(F)c1C(=O)N1CCN(C(=O)[C@H](C)N)CC1 [Example 121, N-[4-[4-[(2S)-2-aminopropanoyl]piperazine-1-carbonyl]-3-fluoro-5-methylphenyl]-5-[1-(cyanomethyl)-3-(trifluoromethyl)pyrazol-4-yl]-1-methylimidazole-2-carboxamide] | 970
3 | Cc1cc(NC(=O)c2ncc(-c3cn(CC#N)nc3C(F)(F)F)n2C)cc(F)c1C(=O)N1CCN(C(=O)[C@H]2CCNC2)CC1 [Example 122, 5-[1-(cyanomethyl)-3-(trifluoromethyl)pyrazol-4-yl]-N-[3-fluoro-5-methyl-4-[4-[(3S)-pyrrolidine-3-carbonyl]piperazine-1-carbonyl]phenyl]-1-methylimidazole-2-carboxamide] | 978
4 | Cc1nc(Cn2cc(-c3cnc(C(=O)Nc4ccc(C(=O)NC5CC(N)C5)c(Cl)c4)n3C)c(C(F)(F)F)n2)cs1 (stereo not drawn) [Example 124, N-[4-[(3-aminocyclobutyl)carbamoyl]-3-chlorophenyl]-1-methyl-5-[1-[(2-methyl-1,3-thiazol-4-yl)methyl]-3-(trifluoromethyl)pyrazol-4-yl]imidazole-2-carboxamide;hydrochloride] | 1800
5 | Cn1c(-c2cn(C3CCC3)nc2C(F)(F)F)cnc1C(=O)Nc1ccc(C(=O)NC2CC(N)C2)c(Cl)c1 (stereo not drawn) [Example 125, N-[4-[(3-aminocyclobutyl)carbamoyl]-3-chlorophenyl]-5-[1-cyclobutyl-3-(trifluoromethyl)pyrazol-4-yl]-1-methylimidazole-2-carboxamide;hydrochloride] | 480
6 | CCc1cc(NC(=O)c2ncc(-c3cn(CC#N)nc3C(F)(F)F)n2C)ccc1C(=O)N1CCN(C(=O)C2CCN(C)CC2)CC1 [Example 127, 5-[1-(cyanomethyl)-3-(trifluoromethyl)pyrazol-4-yl]-N-[3-ethyl-4-[4-(1-methylpiperidine-4-carbonyl)piperazine-1-carbonyl]phenyl]-1-methylimidazole-2-carboxamide;formic acid] | 681
7 | CCc1cc(NC(=O)c2ncc(-c3cn(CC#N)nc3C(F)(F)F)n2C)ccc1C(=O)N1CCN(C(=O)C2CCNCC2)CC1 [Example 128, 5-[1-(cyanomethyl)-3-(trifluoromethyl)pyrazol-4-yl]-N-[3-ethyl-4-[4-(piperidine-4-carbonyl)piperazine-1-carbonyl]phenyl]-1-methylimidazole-2-carboxamide;formic acid] | 1040
8 | CCc1cc(NC(=O)c2ncc(-c3cn(CC#N)nc3C(F)(F)F)n2C)ccc1C(=O)N1CCN(C(=O)C2(O)CCNCC2)CC1 [Example 129, 5-[1-(cyanomethyl)-3-(trifluoromethyl)pyrazol-4-yl]-N-[3-ethyl-4-[4-(4-hydroxypiperidine-4-carbonyl)piperazine-1-carbonyl]phenyl]-1-methylimidazole-2-carboxamide;formic acid] | 949

same assay, conditions: Acinetobacter baumannii ATCC 17961, Iso-Sensitest broth, read-out: ATCC 17961 IC90

Row | Compound | IC90 [nM]
9 | C=CCn1cc(-c2cnc(C(=O)Nc3ccc(C(=O)NC4CC(N)C4)c(Cl)c3)n2C)c(C(F)(F)F)n1 (stereo not drawn) [Example 126, N-[4-[(3-aminocyclobutyl)carbamoyl]-3-chlorophenyl]-1-methyl-5-[1-prop-2-enyl-3-(trifluoromethyl)pyrazol-4-yl]imidazole-2-carboxamide;2,2,2-trifluoroacetic acid] | 293
